# In ChEMBL document CHEMBL1201862, “PubChem BioAssay data set” (2004):
#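 All cell lines were grown in 96-well plates and treated with compound for 48 hours. At the GI50, growth is halved.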 Activity calls are given as the source filed them. Cut-off read from the data, not from the text of the source: active = GI50 up to about 1.1 µM and inactive = higher.
# What was measured:
# Experiment in all cases: DTP human tumour cell line panel, 48 h
# SF-295 = system: SF-295
# M19-MEL = system: M19-MEL
# K562 = system: K562
# NCI-H226 = system: NCI-H226
# SNB-75 = system: SNB-75
# ACHN = system: ACHN
# SF-268 = system: SF-268
# CCRF-CEM = system: CCRF-CEM
# A549 = system: A549
# 786-0 = system: 786-0
# SW-620 = system: SW-620
# SR = system: SR
# RXF 393 = system: RXF 393
# MOLT-4 = system: MOLT-4
# RPMI-8226 = system: RPMI-8226
# UO-31 = system: UO-31
# OVCAR-4 = system: OVCAR-4
# MDA-N = system: MDA-N
# BT-549 = system: BT-549
# DU-145 = system: DU-145
Structure (SMILES),GI50 (SF-295),GI50 (M19-MEL),GI50 (K562),GI50 (NCI-H226),GI50 (SNB-75),GI50 (ACHN),GI50 (SF-268),GI50 (CCRF-CEM),GI50 (A549),GI50 (786-0),GI50 (SW-620),GI50 (SR),GI50 (RXF 393),GI50 (MOLT-4),GI50 (RPMI-8226),GI50 (UO-31),GI50 (OVCAR-4),GI50 (MDA-N),GI50 (BT-549),GI50 (DU-145)
Nc1nc(O)c([N+](=O)[O-])c(NCCOCP(=O)(O)O)n1,> 100 µM (inactive),> 100 µM (inactive),> 100 µM (inactive),> 100 µM (inactive),> 100 µM (inactive),> 100 µM (inactive),> 100 µM (inactive),> 100 µM (inactive),> 100 µM (inactive),> 100 µM (inactive),> 100 µM (inactive),> 100 µM (inactive),> 100 µM (inactive),> 100 µM (inactive),> 100 µM (inactive),> 100 µM (inactive),,,,
O=c1[nH]c(=O)n(C2CC(O)C(CO)O2)cc1COCC(F)(F)F (stereo not given),> 100 µM (inactive),> 100 µM (inactive),> 100 µM (inactive),,> 100 µM (inactive),> 100 µM (inactive),> 100 µM (inactive),86.5 µM (inactive),> 100 µM (inactive),> 100 µM (inactive),> 100 µM (inactive),,> 100 µM (inactive),> 100 µM (inactive),> 100 µM (inactive),> 100 µM (inactive),> 100 µM (inactive),,,
c1ccc(SCCCC(Sc2ccccc2)Sc2ccccc2)cc1,> 100 µM (inactive),> 100 µM (inactive),> 100 µM (inactive),,> 100 µM (inactive),> 100 µM (inactive),> 100 µM (inactive),> 100 µM (inactive),> 100 µM (inactive),> 100 µM (inactive),> 100 µM (inactive),> 100 µM (inactive),> 100 µM (inactive),> 100 µM (inactive),> 100 µM (inactive),> 100 µM (inactive),> 100 µM (inactive),,,
S=P(N1CCCC1)(N1CC1)N1CC1,> 100 µM (inactive),> 100 µM (inactive),> 100 µM (inactive),> 100 µM (inactive),> 100 µM (inactive),71.6 µM (inactive),> 100 µM (inactive),73.1 µM (inactive),> 100 µM (inactive),> 100 µM (inactive),> 100 µM (inactive),83.8 µM (inactive),> 100 µM (inactive),71.4 µM (inactive),> 100 µM (inactive),> 100 µM (inactive),> 100 µM (inactive),,,
C/C(CN1C(=O)c2ccccc2C1=O)=N\NS(=O)(=O)c1ccc(Br)cc1,> 100 µM (inactive),> 100 µM (inactive),> 100 µM (inactive),> 100 µM (inactive),> 100 µM (inactive),> 100 µM (inactive),> 100 µM (inactive),> 100 µM (inactive),> 100 µM (inactive),> 100 µM (inactive),> 100 µM (inactive),,> 100 µM (inactive),> 100 µM (inactive),> 100 µM (inactive),> 100 µM (inactive),> 100 µM (inactive),,,
CC(C)(C)/N=C1/CC(C)(C)c2ccccc2/C(=N\c2ccccc2)S1,32.4 µM (inactive),36 µM (inactive),26.4 µM (inactive),47.3 µM (inactive),32.5 µM (inactive),28.2 µM (inactive),28.2 µM (inactive),26.9 µM (inactive),36.4 µM (inactive),39.4 µM (inactive),44 µM (inactive),,21.4 µM (inactive),14.8 µM (inactive),11.2 µM (inactive),31.8 µM (inactive),,,,
O=C1C[C@H]2CC3(CC[C@H]2CN1)OCCO3,> 100 µM (inactive),> 100 µM (inactive),> 100 µM (inactive),,> 100 µM (inactive),,> 100 µM (inactive),> 100 µM (inactive),> 100 µM (inactive),> 100 µM (inactive),> 100 µM (inactive),,> 100 µM (inactive),> 100 µM (inactive),> 100 µM (inactive),> 100 µM (inactive),> 100 µM (inactive),,,
Cn1c(=O)c2c(nc3n2CCCC(=O)N3CC(O)CCl)n(C)c1=O (stereo not given),> 100 µM (inactive),,> 100 µM (inactive),> 100 µM (inactive),> 100 µM (inactive),> 100 µM (inactive),> 100 µM (inactive),> 100 µM (inactive),> 100 µM (inactive),> 100 µM (inactive),> 100 µM (inactive),50.1 µM (inactive),> 100 µM (inactive),> 100 µM (inactive),> 100 µM (inactive),> 100 µM (inactive),> 100 µM (inactive),> 100 µM (inactive),> 100 µM (inactive),> 100 µM (inactive)
CC(C)C(Sc1nc(-c2ccccc2)c(-c2ccccc2)[nH]1)C(=O)N/N=C/c1ccc(Cl)cc1 (stereo not given),22.8 µM (inactive),19.4 µM (inactive),,17.2 µM (inactive),29.3 µM (inactive),31.9 µM (inactive),20.9 µM (inactive),21.7 µM (inactive),30.8 µM (inactive),21.6 µM (inactive),26.2 µM (inactive),32.4 µM (inactive),,0.0382 µM (active),19.7 µM (inactive),19.5 µM (inactive),27.7 µM (inactive),,,
C#CCOCn1cnc2c(N)ncnc21,> 100 µM (inactive),> 100 µM (inactive),> 100 µM (inactive),> 100 µM (inactive),> 100 µM (inactive),> 100 µM (inactive),> 100 µM (inactive),> 100 µM (inactive),> 100 µM (inactive),> 100 µM (inactive),> 100 µM (inactive),> 100 µM (inactive),,> 100 µM (inactive),> 100 µM (inactive),> 100 µM (inactive),> 100 µM (inactive),,,
O=C(c1ccc([N+](=O)[O-])cc1[N+](=O)[O-])N(/N=C/C=C/c1ccccc1)c1nnc(-c2ccccc2)c(-c2ccccc2)n1,30.5 µM (inactive),36.7 µM (inactive),20.1 µM (inactive),32.7 µM (inactive),28.8 µM (inactive),24.3 µM (inactive),40.7 µM (inactive),24.5 µM (inactive),29.4 µM (inactive),21 µM (inactive),44.4 µM (inactive),,22.8 µM (inactive),23.6 µM (inactive),20.5 µM (inactive),18.5 µM (inactive),20.8 µM (inactive),,,
O=C(/C=N/O)Nc1cccc(Cl)c1I,50.7 µM (inactive),80.7 µM (inactive),53.5 µM (inactive),> 100 µM (inactive),12.8 µM (inactive),57.4 µM (inactive),35.9 µM (inactive),49.1 µM (inactive),46 µM (inactive),> 100 µM (inactive),> 100 µM (inactive),30.7 µM (inactive),23.7 µM (inactive),42.3 µM (inactive),30.6 µM (inactive),23.9 µM (inactive),28.9 µM (inactive),,,
Cc1ccc(C2=C(c3ccccc3)C(Br)(c3ccccc3)C(c3ccccc3)=C2c2ccc(C)cc2)cc1,> 100 µM (inactive),> 100 µM (inactive),> 100 µM (inactive),> 100 µM (inactive),> 100 µM (inactive),> 100 µM (inactive),> 100 µM (inactive),> 100 µM (inactive),> 100 µM (inactive),> 100 µM (inactive),> 100 µM (inactive),,> 100 µM (inactive),> 100 µM (inactive),> 100 µM (inactive),> 100 µM (inactive),> 100 µM (inactive),,,
CN(/N=C(\C(=O)O)c1ccccc1)C1=NCCCCN1,> 100 µM (inactive),,> 100 µM (inactive),> 100 µM (inactive),> 100 µM (inactive),> 100 µM (inactive),> 100 µM (inactive),> 100 µM (inactive),> 100 µM (inactive),> 100 µM (inactive),> 100 µM (inactive),> 100 µM (inactive),> 100 µM (inactive),> 100 µM (inactive),> 100 µM (inactive),> 100 µM (inactive),> 100 µM (inactive),> 100 µM (inactive),> 100 µM (inactive),> 100 µM (inactive)
CCCCON1C[C@H](OC(C)=O)C(OC(C)=O)[C@H](OC(C)=O)C1 (stereo not given in full),> 100 µM (inactive),,> 100 µM (inactive),> 100 µM (inactive),> 100 µM (inactive),> 100 µM (inactive),> 100 µM (inactive),> 100 µM (inactive),> 100 µM (inactive),> 100 µM (inactive),> 10 µM (inactive),> 100 µM (inactive),> 100 µM (inactive),> 100 µM (inactive),> 100 µM (inactive),> 100 µM (inactive),7.14 µM (inactive),> 100 µM (inactive),> 100 µM (inactive),> 100 µM (inactive)
Nc1ncnc2c1ncn2[C@@H]1O[C@H](C(=O)O)[C@@H](O)[C@H]1O [5'-CARBOXY ADENOSINE],> 100 µM (inactive),,> 100 µM (inactive),> 100 µM (inactive),> 100 µM (inactive),> 100 µM (inactive),> 100 µM (inactive),> 100 µM (inactive),> 100 µM (inactive),> 100 µM (inactive),> 100 µM (inactive),> 100 µM (inactive),> 100 µM (inactive),> 100 µM (inactive),> 100 µM (inactive),> 100 µM (inactive),> 100 µM (inactive),> 100 µM (inactive),> 100 µM (inactive),> 100 µM (inactive)
